Source: patent US20060069132A1, “Azolecarboxamide herbicides” (priority 2004, published 2006)
Read-outs that look alike come from different tables or passages of the source.

Columns and labels:
giant foxtail = experiment: Test B pre-/postemergence herbicide test; assay type: in vivo, Setaria faberi; conditions: Setaria faberi, 336 h; for pest or weed control at 125 g/ha: 125 g ai/ha; for pest or weed control at 500 g/ha: 500 g ai/ha
How it was run: (§1)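 Seeds were planted and treated preemergence with compounds formulated in a non-phytotoxic solvent mixture containing surfactant, while plants at the 1- to 4-leaf stage (2 to 18 cm) received postemergence sprays. Flooded paddy plants were grown to the 2-leaf stage. After 13 to 15 days in a greenhouse, injury was visually rated 0–100 against untreated controls.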

pigweed = experiment: Test B pre-/postemergence herbicide test; assay type: in vivo, Amaranthus retroflexus; conditions: Amaranthus retroflexus, 336 h; for pest or weed control at 125 g/ha: 125 g ai/ha; for pest or weed control at 500 g/ha: 500 g ai/ha
How it was run: as §1

Surinam grass = experiment: Test C pre-/postemergence herbicide test; assay type: in vivo, Urochloa decumbens; conditions: for Surinam Grass plant response rating: 500 g ai/ha; for pest or weed control at 62 g/ha: 62 g ai/ha; for pest or weed control at 125 g/ha: 125 g ai/ha
How it was run: (§2)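 Visual injury scores run from 0 (no effect) to 100 (complete control), assessed relative to untreated controls 12 to 14 days after treatment in the greenhouse. Chemicals were formulated in a non-phytotoxic solvent mixture with surfactant and applied to soil after planting or to emerged plants at the 1- to 4-leaf stage.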

large crabgrass = experiment: Test C pre-/postemergence herbicide test; assay type: in vivo, Digitaria sanguinalis; conditions: for pest or weed control at 62 g/ha / pest or weed control at 125 g/ha / pest or weed control at 250 g/ha: Digitaria sanguinalis, 312 h, read-out: Plant response rating, Crabgrass, Large; for pest or weed control at 62 g/ha: 62 g ai/ha; for pest or weed control at 125 g/ha: 125 g ai/ha; for pest or weed control at 250 g/ha: 250 g ai/ha; for Crabgrass, Large plant response rating: 500 g ai/ha
How it was run: as §2

goosegrass = experiment: Test C pre-/postemergence herbicide test; assay type: in vivo, Eleusine indica; conditions: for pest or weed control at 62 g/ha: 62 g ai/ha; for pest or weed control at 125 g/ha: 125 g ai/ha; for Goosegrass plant response rating: 500 g ai/ha
How it was run: as §2

kochia = experiment: Test C pre-/postemergence herbicide test; assay type: in vivo, Kochia scoparia; conditions: for pest or weed control at 62 g/ha: 62 g ai/ha; for pest or weed control at 125 g/ha: 125 g ai/ha; for Kochia plant response rating: 500 g ai/ha
How it was run: as §2

lambsquarters = experiment: Test C pre-/postemergence herbicide test; assay type: in vivo, Chenopodium album; conditions: for pest or weed control at 62 g/ha: 62 g ai/ha; for pest or weed control at 125 g/ha: 125 g ai/ha; for Lambsquarters plant response rating: 500 g ai/ha
How it was run: as §2

common ragweed = experiment: Test C pre-/postemergence herbicide test; assay type: in vivo, Ambrosia elatior; conditions: for pest or weed control at 62 g/ha: 62 g ai/ha; for pest or weed control at 125 g/ha: 125 g ai/ha; for Ragweed plant response rating: 500 g ai/ha
How it was run: as §2

[1] = post-emergence, postemergence, visual rating, scale 0 (no effect) to 100 (complete control), read-out: Foxtail, Giant plant response rating
[2] = pre-emergence, preemergence, 0 to 100 scale, 0 is no effect, 100 is complete control, read-out: Plant response rating, Foxtail, Giant
[3] = post-emergence, postemergence, visual rating, scale 0 (no effect) to 100 (complete control), read-out: Pigweed plant response rating
[4] = pre-emergence, preemergence, 0 to 100 scale, 0 is no effect, 100 is complete control, read-out: Plant response rating, Pigweed
[5] = Preemergence, scale 0 to 100, 0 no effect, 100 complete control
[6] = Urochloa decumbens, post-emergence, 312 h, postemergence, scale 0 to 100, read-out: Plant response rating, Surinam Grass
[7] = post-emergence, postemergence, scale 0 to 100
[8] = Eleusine indica, post-emergence, 312 h, postemergence, scale 0 to 100, read-out: Plant response rating, Goosegrass
[9] = Bassia scoparia, post-emergence, postemergence, scale 0 to 100, read-out: Plant response rating, Kochia
[10] = Chenopodium album, post-emergence, postemergence, scale 0 to 100, read-out: Plant response rating, Lambsquarters
[11] = Ambrosia artemisiifolia, post-emergence, postemergence, scale 0 to 100, read-out: Plant response rating, Ragweed

SMILES: CCn1nc(C(C)(C)C)cc1C(=O)Nc1cc(C(=O)N(C)C)ccn1 [Compound 156, 2-[[[3-(1,1-dimethylethyl)-1-ethyl-1H-pyrazol-5-yl]carbonyl]amino]-N,N-dimethyl-4-pyridinecarboxamide]
- pest or weed control at 125 g/ha (giant foxtail; [1]): 20%
- pest or weed control at 500 g/ha (giant foxtail; [1]): 40%
- pest or weed control at 500 g/ha (giant foxtail; pre-emergence, visual rating 0-100, 0 no effect, 100 complete control, read-out: Plant response rating, Foxtail, Giant): 100%
- pest or weed control at 125 g/ha (giant foxtail; [2]): 100%
- pest or weed control at 125 g/ha (pigweed; [3]): 30%
- pest or weed control at 500 g/ha (pigweed; [3]): 60%
- pest or weed control at 500 g/ha (pigweed; pre-emergence, visual rating 0-100, 0 no effect, 100 complete control, read-out: Plant response rating, Pigweed): 100%
- pest or weed control at 125 g/ha (pigweed; [4]): 100%
- Surinam Grass plant response rating (Surinam grass; [5]): 95
- pest or weed control at 62 g/ha (Surinam grass; Urochloa decumbens, pre-emergence, 312 h, preemergence, scale 0 to 100, read-out: Plant response rating, Surinam Grass): 75%
- pest or weed control at 125 g/ha (Surinam grass; Urochloa decumbens, pre-emergence, 312 h, scale 0 (no effect) to 100 (complete control), visual, 12 to 14 days, read-out: Plant response rating, Surinam Grass): 88%
- pest or weed control at 62 g/ha (large crabgrass; pre-emergence, preemergence, scale 0 to 100): 60%
- pest or weed control at 125 g/ha (large crabgrass; pre-emergence, scale 0 (no effect) to 100 (complete control), visual, 12 to 14 days): 85%
- pest or weed control at 250 g/ha (large crabgrass; pre-emergence, scale 0 to 100 (0 no effect, 100 complete control), visual, 12 to 14 days): 90%
- Crabgrass, Large plant response rating (large crabgrass; [5]): 100
- pest or weed control at 62 g/ha (goosegrass; Eleusine indica, pre-emergence, 312 h, preemergence, scale 0 to 100, read-out: Plant response rating, Goosegrass): 83%
- pest or weed control at 125 g/ha (goosegrass; Eleusine indica, pre-emergence, 312 h, scale 0 (no effect) to 100 (complete control), visual, 12 to 14 days, read-out: Plant response rating, Goosegrass): 90%
- Goosegrass plant response rating (goosegrass; [5]): 95
- pest or weed control at 62 g/ha (kochia; Bassia scoparia, pre-emergence, preemergence, scale 0 to 100, read-out: Plant response rating, Kochia): 95%
- pest or weed control at 125 g/ha (kochia; Bassia scoparia, pre-emergence, scale 0 (no effect) to 100 (complete control), visual, 12 to 14 days, read-out: Plant response rating, Kochia): 95%
- Kochia plant response rating (kochia; [5]): 100
- pest or weed control at 62 g/ha (lambsquarters; Chenopodium album, pre-emergence, preemergence, scale 0 to 100, read-out: Plant response rating, Lambsquarters): 100%
- pest or weed control at 125 g/ha (lambsquarters; Chenopodium album, pre-emergence, scale 0 (no effect) to 100 (complete control), visual, 12 to 14 days, read-out: Plant response rating, Lambsquarters): 100%
- Lambsquarters plant response rating (lambsquarters; [5]): 100
- pest or weed control at 62 g/ha (common ragweed; Ambrosia artemisiifolia, pre-emergence, preemergence, scale 0 to 100, read-out: Plant response rating, Ragweed): 90%
- pest or weed control at 125 g/ha (common ragweed; Ambrosia artemisiifolia, pre-emergence, scale 0 (no effect) to 100 (complete control), visual, 12 to 14 days, read-out: Plant response rating, Ragweed): 100%
- Ragweed plant response rating (common ragweed; [5]): 100

SMILES: CCn1nc(C(C)(C)C)cc1C(=O)Nc1cccc(C(=O)OCCF)c1 [Compound 82, 2-fluoroethyl 3-[[[3-(1,1-dimethylethyl)-1-ethyl-1H-pyrazol-5-yl]-carbonyl]amino]benzoate]
- pest or weed control at 500 g/ha (giant foxtail; post-emergence, Postemergence, visual rating after 13 to 15 days, scale 0 (no effect) to 100 (complete control), read-out: Plant response rating, Foxtail, Giant): 10%
- pest or weed control at 125 g/ha (giant foxtail; [1]): 10%
- pest or weed control at 500 g/ha (giant foxtail; pre-emergence, Preemergence, scale 0 to 100, read-out: Foxtail, Giant plant response rating): 0%
- pest or weed control at 125 g/ha (giant foxtail; [2]): 0%
- pest or weed control at 500 g/ha (pigweed; post-emergence, Postemergence, visual rating after 13 to 15 days, scale 0 (no effect) to 100 (complete control), read-out: Plant response rating, Pigweed): 100%
- pest or weed control at 125 g/ha (pigweed; [3]): 80%
- pest or weed control at 125 g/ha (pigweed; [4]): 0%
- Surinam Grass plant response rating (Surinam grass; Postemergence, scale 0 to 100): 40
- pest or weed control at 250 g/ha (Surinam grass; Urochloa decumbens, post-emergence, 312 h, Postemergence, 250 g ai/ha, scale 0 to 100, 0 no effect, 100 complete control, read-out: Plant response rating, Surinam Grass): 20%
- pest or weed control at 125 g/ha (Surinam grass; [6]): 10%
- pest or weed control at 62 g/ha (Surinam grass; [6]): 10%
- pest or weed control at 250 g/ha (large crabgrass; post-emergence, Postemergence, scale 0 to 100, 0 no effect, 100 complete control): 0%
- pest or weed control at 125 g/ha (large crabgrass; [7]): 0%
- pest or weed control at 62 g/ha (large crabgrass; [7]): 0%
- Crabgrass, Large plant response rating (large crabgrass; Postemergence, scale 0 to 100): 60
- pest or weed control at 250 g/ha (goosegrass; Eleusine indica, post-emergence, 312 h, Postemergence, 250 g ai/ha, scale 0 to 100, 0 no effect, 100 complete control, read-out: Plant response rating, Goosegrass): 10%
- pest or weed control at 125 g/ha (goosegrass; [8]): 10%
- pest or weed control at 62 g/ha (goosegrass; [8]): 0%
- Goosegrass plant response rating (goosegrass; Postemergence, scale 0 to 100): 10
- pest or weed control at 250 g/ha (kochia; Bassia scoparia, post-emergence, Postemergence, 250 g ai/ha, scale 0 to 100, 0 no effect, 100 complete control, read-out: Plant response rating, Kochia): 50%
- pest or weed control at 125 g/ha (kochia; [9]): 40%
- pest or weed control at 62 g/ha (kochia; [9]): 10%
- Kochia plant response rating (kochia; Postemergence, scale 0 to 100): 70
- pest or weed control at 250 g/ha (lambsquarters; Chenopodium album, post-emergence, Postemergence, 250 g ai/ha, scale 0 to 100, 0 no effect, 100 complete control, read-out: Plant response rating, Lambsquarters): 80%
- pest or weed control at 125 g/ha (lambsquarters; [10]): 50%
- pest or weed control at 62 g/ha (lambsquarters; [10]): 30%
- Lambsquarters plant response rating (lambsquarters; Postemergence, scale 0 to 100): 100
- pest or weed control at 250 g/ha (common ragweed; Ambrosia artemisiifolia, post-emergence, Postemergence, 250 g ai/ha, scale 0 to 100, 0 no effect, 100 complete control, read-out: Plant response rating, Ragweed): 10%
- pest or weed control at 125 g/ha (common ragweed; [11]): 0%
- pest or weed control at 62 g/ha (common ragweed; [11]): 0%
- Ragweed plant response rating (common ragweed; Postemergence, scale 0 to 100): 30
